IC50 data for 26 molecules are collected here from patent publication US20230081426A1, “COMPOUNDS AND METHODS FOR KRAS MODULATION AND INDICATIONS THEREFOR” (Plexxikon Inc., priority 2020, published 2023).

The first test deals with T1, G12D-mutant human KRAS (amino acid residues 1-188) (Homo sapiens, UniProt P01116, G12D).
T1 construct: G12D or G12C-mutant human KRAS (amino acid residues 1-188) with FLAG tag; made in house; host or cells: E. coli
T1 sequence (P01116 1-188 isoform P01116-2 G12D): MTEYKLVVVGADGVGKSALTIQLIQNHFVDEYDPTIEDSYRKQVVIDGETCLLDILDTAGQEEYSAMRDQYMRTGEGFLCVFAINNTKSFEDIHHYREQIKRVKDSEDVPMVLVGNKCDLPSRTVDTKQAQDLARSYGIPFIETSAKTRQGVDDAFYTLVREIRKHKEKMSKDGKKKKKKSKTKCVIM
Put plainly: KRAS Binding Disruption Assay (AlphaScreen; biotinylated KRpep-2d analogue or RAF1-RBD), G12D. The settings on record: KRAS G12D; geometric mean; read-out: KRAS GMean IC50 (uM) MUTATION: G12D. The method, then:
Compound binding disrupts the interaction of KRpep-2d or RAF1-RBD with KRAS, leading to a decrease in Alpha signal.
All assay components were prepared in 20 mM HEPES (pH 7.5), 100 mM NaCl, 5 mM MgCl2, 0.01% Tween-20, and 0.01% BSA. Biotinylated analogues of KRpep-2d were custom synthesized. The binding disruption assays were performed using 5-20 nM of mutant KRAS and 5-20 nM of either biotinylated KRpep-2d analogue or RAF1-RBD. 19 μL of KRAS protein and 4 μL of biotinylated KRpep-2d or RAF1-RBD were added to the wells of a 384-well plate containing 1 μL of various concentrations of test compound or DMSO vehicle. 16 wells containing KRAS, biotinylated KRpep-2d or RAF1-RBD, and 5% DMSO served as high controls. 16 wells containing KRAS only and 5% DMSO served as low controls. Binding reactions were incubated for 1 hour at 25° C., then Anti-Flag Acceptor and Streptavidin Donor Alpha beads were added at a final concentration of 10 μg/mL for an additional hour at room temperature. Alpha signal was read out on a Perkin Elmer Envision HTS instrument. The percentage inhibition at individual compound concentrations relative to high and low controls was calculated. The data were analyzed by using nonlinear regression to generate IC50 values.
By IC50 is commonly meant the concentration needed to halve the response being measured. On to `CN1CCC[C@H]1COc1nc(N2C[C@H]3CC[C@@H](C2)N3)c2cnc(-c3cc(O)cc4ccccc34)cc2n1` [P-0004, 4-(4-((1R,5S)-3,8-diazabicyclo[3.2.1]octan-3-yl)-2-(((S)-1-methylpyrrolidin-2-yl)methoxy)pyrido[4,3-d]pyrimidin-7-yl)naphthalen-2-ol], for which the concentration for half-maximal inhibition (IC50) lay in the range of 0.0001 to 10 µM. Same read-out and setting: in the case of `CN1CCC[C@H]1COc1nc(N2C[C@@H]3CC[C@H]2CN3)c2ccc(-c3cc(O)cc4ccccc34)cc2n1` [P-0011, 4-(4-((1S,4S)-2,5-diazabicyclo[2.2.2]octan-2-yl)-2-(((S)-1-methylpyrrolidin-2-yl)methoxy)quinazolin-7-yl)naphthalen-2-ol] it was 0.0001 to 10 µM. `CN1CCC[C@H]1COc1nc(N2C[C@H]3CC[C@@H]2CN3)c2ccc(-c3cc(O)cc4ccccc34)cc2n1` [P-0012, 4-(4-((1R,4R)-2,5-diazabicyclo[2.2.2]octan-2-yl)-2-(((S)-1-methylpyrrolidin-2-yl)methoxy)quinazolin-7-yl)naphthalen-2-ol]: the 50% inhibitory concentration (IC50) was in the range of 0.0001 to 10 µM. Same read-out and setting: in the case of `Cc1c(-c2cc(O)cc3ccccc23)ccc2c(N3C[C@H]4CC[C@@H](C3)N4)nc(OC[C@@H]3CCCN3C)nc12` [P-0014, 4-(4-((1R,5S)-3,8-diazabicyclo[3.2.1]octan-3-yl)-8-methyl-2-(((S)-1-methylpyrrolidin-2-yl)methoxy)quinazolin-7-yl)naphthalen-2-ol] it was 0.0001 to 10 µM; in that of `Oc1cc(-c2ccc3c(N4C[C@H]5CC[C@@H](C4)N5Cc4ccccc4)nc(OCC45CCCN4CCC5)nc3c2)c2ccccc2c1` [P-0018, 4-(4-((1R,5S)-8-benzyl-3,8-diazabicyclo[3.2.1]octan-3-yl)-2-((tetrahydro-1H-pyrrolizin-7a(5H)-yl)methoxy)quinazolin-7-yl)naphthalen-2-ol], 0.0001 to 10 µM. `CN1CCC[C@H]1COc1nc(N2C[C@H]3CC[C@@H](C2)N3)c2cc(Cl)c(-c3cc(O)cc4ccccc34)c(OCC(F)(F)F)c2n1` [P-0033, 4-(4-((1R,5S)-3,8-diazabicyclo[3.2.1]octan-3-yl)-6-chloro-2-(((S)-1-methylpyrrolidin-2-yl)methoxy)-8-(2,2,2-trifluoroethoxy)quinazolin-7-yl)naphthalen-2-ol]: the IC50 was 0.0001 to 10 µM. As for `CO[C@@H]1CN(C)C[C@H]1Oc1nc(N2C[C@H]3CC[C@@H](C2)N3)c2cc(Cl)c(-c3cc(O)cc4ccccc34)c(F)c2n1` [P-0035, 4-(4-((1R,5S)-3,8-diazabicyclo[3.2.1]octan-3-yl)-6-chloro-8-fluoro-2-(((3R,4R)-4-methoxy-1-methylpyrrolidin-3-yl)oxy)quinazolin-7-yl)naphthalen-2-ol], the half-maximal inhibitory concentration (IC50) lay within 0.0001 to 10 µM.

On to `CN1CCC[C@H]1COc1nc(N2CC3COCC(C2)N3)c2cc(Cl)c(-c3cc(O)cc4ccccc34)c(F)c2n1` [P-0040, 4-(4-(3-oxa-7,9-diazabicyclo[3.3.1]nonan-7-yl)-6-chloro-8-fluoro-2-(((S)-1-methylpyrrolidin-2-yl)methoxy)quinazolin-7-yl)naphthalen-2-ol], for which the concentration for half-maximal inhibition (IC50) lay in the range of 0.0001 to 10 µM. Consider `CN1CCC[C@H]1COc1nc(N2C[C@H]3C[C@@H]2CN3)c2cc(Cl)c(-c3cc(O)cc4ccccc34)c(F)c2n1` [P-0041, 4-(4-((1R,4R)-2,5-diazabicyclo[2.2.1]heptan-2-yl)-6-chloro-8-fluoro-2-(((S)-1-methylpyrrolidin-2-yl)methoxy)quinazolin-7-yl)naphthalen-2-ol], for which the concentration for half-maximal inhibition (IC50) lay within 0.0001 to 10 µM. As to `CN1CCC[C@H]1COc1nc(N2C[C@H]3CC[C@@H](C2)N3)c2cc(Cl)c(-c3cc(O)cc4ccccc34)nc2n1` [P-0045, 4-(4-((1R,5S)-3,8-diazabicyclo[3.2.1]octan-3-yl)-6-chloro-2-(((S)-1-methylpyrrolidin-2-yl)methoxy)pyrido[2,3-d]pyrimidin-7-yl)naphthalen-2-ol], the concentration for half-maximal inhibition (IC50) is 0.0001 to 10 µM. On the same count and under the same terms, in the case of `CN1CCC[C@H]1COc1nc(N2C[C@H]3C[C@@H]2CN3)c2ccc(-c3cc(O)cc4ccccc34)cc2n1` [P-0051, 4-(4-((1R,4R)-2,5-diazabicyclo[2.2.1]heptan-2-yl)-2-(((S)-1-methylpyrrolidin-2-yl)methoxy)quinazolin-7-yl)naphthalen-2-ol] it was 0.0001 to 10 µM. The same measure, in the same setting: in the case of `CN1CCC[C@H]1COc1nc(N2C[C@@H]3C[C@H]2CN3)c2ccc(-c3cc(O)cc4ccccc34)cc2n1` [P-0052, 4-(4-((1S,4S)-2,5-diazabicyclo[2.2.1]heptan-2-yl)-2-(((S)-1-methylpyrrolidin-2-yl)methoxy)quinazolin-7-yl)naphthalen-2-ol] it was 0.0001 to 10 µM. Same read-out and setting: in the case of `CN(C)CCN(C)c1nc(N2C[C@H]3CC[C@@H](C2)N3)c2ccc(-c3cc(O)cc4ccccc34)cc2n1` [P-0057, 4-(4-((1R,5S)-3,8-diazabicyclo[3.2.1]octan-3-yl)-2-((2-(dimethylamino)ethyl)(methyl)amino)quinazolin-7-yl)naphthalen-2-ol] it was 10 to 100 µM. For the molecule `CN1CC[C@@H](COc2nc(N3C[C@H]4CC[C@@H](C3)N4)c3ccc(-c4cc(O)cc5ccccc45)cc3n2)C1` [P-0069, 4-(4-((1R,5S)-3,8-diazabicyclo[3.2.1]octan-3-yl)-2-(((R)-1-methylpyrrolidin-3-yl)methoxy)quinazolin-7-yl)naphthalen-2-ol], the IC50 is 0.0001 to 10 µM. Regarding `CN(C)C(=O)COc1nc(N2C[C@H]3CC[C@@H](C2)N3)c2ccc(-c3cc(O)cc4ccccc34)cc2n1` [P-0070, 2-((4-((1R,5S)-3,8-diazabicyclo[3.2.1]octan-3-yl)-7-(3-hydroxynaphthalen-1-yl)quinazolin-2-yl)oxy)-N,N-dimethylacetamide], the IC50 was in the range of 10 to 100 µM.

As to `CN(C)C(=O)CCOc1nc(N2C[C@H]3CC[C@@H](C2)N3)c2ccc(-c3cc(O)cc4ccccc34)cc2n1` [P-0071, 3-((4-((1R,5S)-3,8-diazabicyclo[3.2.1]octan-3-yl)-7-(3-hydroxynaphthalen-1-yl)quinazolin-2-yl)oxy)-N,N-dimethylpropanamide], the half-inhibitory concentration (IC50) was in the range of 0.0001 to 10 µM. For `CN(C)CC(CN)Oc1nc(N2C[C@H]3CC[C@@H](C2)N3)c2ccc(-c3cc(O)cc4ccccc34)cc2n1` (stereo partly drawn) [P-0074, 4-(2-((1-amino-3-(dimethylamino)propan-2-yl)oxy)-4-((1R,5S)-3,8-diazabicyclo[3.2.1]octan-3-yl)quinazolin-7-yl)naphthalen-2-ol], the half-inhibitory concentration (IC50) lay within 0.0001 to 10 µM.

As to `Oc1cc(-c2ccc3c(N4C[C@H]5CC[C@@H](C4)N5Cc4ccccn4)nc(OCC45CCCN4CCC5)nc3c2)c2ccccc2c1` [P-0076, 4-(4-((1R,5S)-8-(pyridin-2-ylmethyl)-3,8-diazabicyclo[3.2.1]octan-3-yl)-2-((tetrahydro-1H-pyrrolizin-7a(5H)-yl)methoxy)quinazolin-7-yl)naphthalen-2-ol], the IC50 lay within 0.0001 to 10 µM. With `Oc1cc(-c2ccc3c(N4C[C@H]5CC[C@@H](C4)N5)nc(OCC4CCOC4)nc3c2)c2ccccc2c1` (stereo partly drawn) [P-0081, 4-(4-((1R,5S)-3,8-diazabicyclo[3.2.1]octan-3-yl)-2-((tetrahydrofuran-3-yl)methoxy)quinazolin-7-yl)naphthalen-2-ol], the IC50 was in the range of 0.0001 to 10 µM.

As for `Oc1cc(-c2ccc3c(N4C[C@H]5CC[C@@H](C4)N5)nc(OCC4CCCO4)nc3c2)c2ccccc2c1` (stereo partly drawn) [P-0082, 4-(4-((1R,5S)-3,8-diazabicyclo[3.2.1]octan-3-yl)-2-((tetrahydrofuran-2-yl)methoxy)quinazolin-7-yl)naphthalen-2-ol], the half-maximal inhibitory concentration (IC50) was in the range of 0.0001 to 10 µM. Regarding `CNCCOc1nc(N2C[C@H]3CC[C@@H](C2)N3)c2ccc(-c3cc(O)cc4ccccc34)cc2n1` [P-0083, 4-(4-((1R,5S)-3,8-diazabicyclo[3.2.1]octan-3-yl)-2-(2-(methylamino)ethoxy)quinazolin-7-yl)naphthalen-2-ol], the half-maximal inhibitory concentration (IC50) fell in the range of 10 to 100 µM. Take `CN1CCOC[C@H]1COc1nc(N2C[C@H]3CC[C@@H](C2)N3)c2ccc(-c3cc(O)cc4ccccc34)cc2n1` [P-0084, 4-(4-((1R,5S)-3,8-diazabicyclo[3.2.1]octan-3-yl)-2-(((S)-4-methylmorpholin-3-yl)methoxy)quinazolin-7-yl)naphthalen-2-ol]: the IC50 lay in the range of 0.0001 to 10 µM. Take `CN1CCC1COc1nc(N2C[C@H]3CC[C@@H](C2)N3)c2ccc(-c3cc(O)cc4ccccc34)cc2n1` (stereo partly drawn) [P-0086, 4-(4-((1R,5S)-3,8-diazabicyclo[3.2.1]octan-3-yl)-2-((1-methylazetidin-2-yl)methoxy)quinazolin-7-yl)naphthalen-2-ol]: the IC50 is 0.0001 to 10 µM.

The same test, now with this note: Table 3; geometric mean; bridged vs non-bridged R1; read-out: KRAS GMean IC50 (uM) MUTATION: G12D.
Turning to `CN1CCC[C@H]1COc1nc(N2CCNCC2)c2cc(Cl)c(-c3cc(O)cc4ccccc34)c(F)c2n1` [Non-bridged version of P-0001, reference compound], the concentration for half-maximal inhibition (IC50) worked out at 1.11 µM.

Still in this test, the particulars now being: Table 4; geometric mean; comparison with compounds of WO 2017/172979; read-out: KRAS GMean IC50 (uM) MUTATION: G12D.
In the case of `CC1CN(c2nc(OCCCN3CCC(F)(F)C3)nc3c(F)c(-c4cc(O)cc5ccccc45)c(Cl)cc23)C(C)CN1` (centres unmarked) [Compound 36 in WO 2017/172979, reference compound], the half-inhibitory concentration (IC50) was 3.06 µM. Consider `CN(C)CCCOc1nc(N2CCN(C)CC2)c2cc(Cl)c(-c3cc(O)cc4ccccc34)c(F)c2n1` [Compound 149 in WO 2017/172979, reference compound], for which the half-maximal inhibitory concentration (IC50) came out at 16.5 µM.
